TGI data for 21 molecules are collected here from PubChem BioAssay (NCI).

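Briefly, cells in 96-well plates were exposed to five compound concentrations for 48 h, and endpoints were estimated by linear interpolation. TGI marks complete inhibition of growth.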

Common to all, as to assay: NCI tumour cell line growth inhibition, 48 h
The subject of experiment [1] is COLO 205 colon.
Experiment [2] deals with SNB-75 CNS.
In experiment [3] the test system is HCC-2998 colon.
In experiment [4] the test system is UACC-257 melanoma.
The test system of experiment [5] is MALME-3M melanoma.
Experiment [6] relates to OVCAR-8 ovarian.
The subject of experiment [7] is 786-0 renal.
The test system of experiment [8] is SK-MEL-2 melanoma.
Experiment [9] has as its system NCI/ADR-RES ovarian.
The test system of experiment [10] is RXF 393 renal.
Experiment [11] deals with SF-539 CNS.

Consider `O=C1c2ccsc2C(=O)c2sc(CO)cc21`, for which the TGI turned out to be 1.53 µM in [1]; 0.104 µM in experiment [2]; 5.33 µM in experiment [3]; 0.0993 µM in experiment [4]; 1.21 µM in experiment [5]; 0.38 µM in experiment [6]. Also, the TGI in [7] stood at 0.855 µM; in experiment [8], 0.232 µM; in experiment [9], 0.396 µM; in experiment [10] it was 1.9 µM; in experiment [11] it was 0.1 µM.
For the molecule `CCOC(=O)Cc1nc2cc(F)c(F)cc2[nH]c1=O`, the TGI in [1], in [2], in [3], in experiment [4], in [5] and in experiment [6] was > 100 µM each time. Moreover, the TGI in experiment [7], in [8], in experiment [9], in experiment [10] and in experiment [11] was > 100 µM each time.
On to `O=c1cc(N2CCCC2)[nH]c(=O)n1-c1cccc(Cl)c1`, for which the TGI in experiment [1], in experiment [2], in [3], in experiment [4], in experiment [5] and in experiment [6] was > 100 µM in each case. Further, the TGI in [7], in experiment [8], in experiment [9], in [10] and in experiment [11] was > 100 µM in each case.
`CC(=O)[C@@H](C)C(=O)N1C(=O)OC[C@@]12[C@@H]1CC[C@@H](C1)C2(C)C`: the TGI in experiment [1], in [2], in [3], in experiment [4], in [5] and in [6] was > 100 µM each time. Further, the TGI in experiment [7], in experiment [8], in experiment [9], in experiment [10] and in experiment [11] was > 100 µM each time.
`CCOC(=O)c1ccc(NCc2ccc3oc(=O)c(-c4ccccc4)nc3c2)cc1`: the TGI in experiment [1] was 62.6 µM; in experiment [2], > 100 µM; in experiment [3] it was > 100 µM; in [4], 42 µM; in experiment [5], 38.8 µM; in [6], 65 µM. Besides, the TGI in [7] is > 100 µM; in experiment [8], > 100 µM; in experiment [9] it was > 100 µM; in experiment [10], 87.4 µM; in experiment [11], > 100 µM.
For `CC(=O)ONC(C(=O)C(C)(C)C)C(=O)C(C)(C)C`, the TGI in [1], in experiment [2], in experiment [3], in experiment [4], in experiment [5] and in experiment [6] was > 100 µM throughout. For the same molecule, the TGI in [7], in experiment [8], in [9], in [10] and in experiment [11] was > 100 µM each time.
For the molecule `Clc1ccc(-c2cc3nc4ccccc4nc3o2)cc1`, the TGI is > 100 µM in [1]; 48.3 µM in experiment [2]; > 100 µM in experiment [3]; > 100 µM in experiment [4]; > 100 µM in experiment [5]; > 100 µM in experiment [6]. Moreover, the TGI in [7] is > 100 µM; in experiment [8], > 100 µM; in experiment [9], > 100 µM; in [10] it was 90 µM; in experiment [11] it was > 100 µM.
On to `COCc1nc2c(OC)c(-c3nc4nc(N5CCN(C)CC5)ccc4[nH]3)cc(OC)c2n1C`, for which the TGI in experiment [1] is 21.5 µM; in experiment [2], 64.9 µM; in experiment [3], 32.4 µM; in experiment [4], 36.4 µM; in experiment [5], 35.6 µM; in experiment [6] it was > 100 µM. The TGI in [7] is > 100 µM; in experiment [8], 41.9 µM; in [9], > 100 µM; in [10], 57.6 µM; in [11] it was 27.1 µM.
For the molecule `CC(C)=CCC(O)[C@](C)(O)[C@H]1[C@H](O)C[C@@]2(C)[C@@H]3CCc4cc(O)c(OC5OC(CO)C(O)C(O)C5O)cc4C3(C)C(=O)C[C@]12C` (stereo partly specified), the TGI in experiment [1], in experiment [2], in [3], in [4], in experiment [5] and in experiment [6] was > 100 µM each time. Further, the TGI in [7], in experiment [8], in experiment [9], in experiment [10] and in experiment [11] was > 100 µM each time.
Consider `CCOC(=O)c1c(N2CCOCC2)[nH]c(=O)c(C(c2c(Cl)cccc2Cl)c2c(O)c(C(=O)OCC)c(N3CCOCC3)[nH]c2=O)c1O`, for which the TGI amounted to 14.9 µM in experiment [1]; 15.6 µM in experiment [2]; 34 µM in experiment [3]; 18.7 µM in experiment [4]; 7.91 µM in experiment [5]; 20.5 µM in [6]. For the same molecule, the TGI came out at 6.47 µM in experiment [7]; 16.2 µM in experiment [8]; 33.8 µM in [9]; 4.93 µM in experiment [10]; 11 µM in [11].
Turning to `CCCCCCCCCCCC(=O)OCC(C[As](=O)(O)O)OC(=O)CCCCCCCCCCC` (stereo unspecified), the TGI came to 25.4 µM in [1]; 21.1 µM in [2]; 14 µM in experiment [3]; 21.9 µM in [4]; 6.49 µM in experiment [5]; 24.8 µM in experiment [6]. Further, the TGI in experiment [7] amounted to 26.7 µM; in experiment [8], 12.1 µM; in experiment [9] it was 44.5 µM; in experiment [10], 5.86 µM; in [11] it was 32 µM.
With `COc1cc2cc3c4cc(OC)c(OC)cc4cc[n+]3c(C)c2cc1OC` (tested in a mixture with another compound), the TGI is > 87.9 µM in experiment [1]; > 88.3 µM in [2]; > 100 µM in [3]; > 55.5 µM in experiment [4]; > 100 µM in [5]; > 100 µM in experiment [6]. Also, the TGI in [7], in [8], in experiment [9], in experiment [10] and in experiment [11] was > 100 µM throughout.
Turning to `CCOC(=O)c1cn2c(n1)sc1cc(Cl)ccc12`, the TGI was 60.8 µM in experiment [1]; > 100 µM in experiment [2]; > 100 µM in [3]; > 100 µM in experiment [4]; 99.1 µM in experiment [5]; > 100 µM in experiment [6]. Besides, the TGI in [7] was 26.4 µM; in [8], > 100 µM; in experiment [9], > 100 µM; in experiment [10], > 100 µM; in experiment [11], 26 µM.
Regarding `C/C(=N/NC(N)=S)c1ccc[nH]1`, the TGI in experiment [1], in experiment [2], in experiment [3], in experiment [4], in experiment [5] and in experiment [6] was > 100 µM each time. Besides, the TGI in [7], in experiment [8], in experiment [9], in [10] and in [11] was > 100 µM each time.
Take `CC(C)=C[C@H]1CCC2(OCCO2)[C@]1(C)CO`: the TGI in experiment [1], in experiment [2], in [3], in [4], in experiment [5] and in experiment [6] was > 100 µM each time. For the same molecule, the TGI in [7], in experiment [8], in experiment [9], in experiment [10] and in [11] was > 100 µM in each case.
Take `Cc1ccc([N+](=O)[O-])c2c(NCCC[N+](C)(C)[O-])c3ccccc3nc12`: the TGI came to 2.56 µM in [1]; 2.49 µM in experiment [2]; 2.55 µM in experiment [3]; 6.11 µM in experiment [4]; 2.78 µM in experiment [5]; 49.1 µM in experiment [6]. Besides, the TGI is 6.72 µM in experiment [7]; 2.25 µM in experiment [8]; > 100 µM in experiment [9]; 3.02 µM in experiment [10]; 9.76 µM in experiment [11].
In the case of `CO/C=C(/C(=O)OC)c1ccccc1COc1cccc(C(F)(F)F)c1`, the TGI in experiment [1] was 28.5 µM; in experiment [2] it was 64.8 µM; in experiment [3], > 100 µM; in experiment [4], 21.3 µM; in [5] it was 29.4 µM; in experiment [6], > 100 µM. The TGI in experiment [7] was > 100 µM; in [8], 34.2 µM; in experiment [9] it was > 100 µM; in experiment [10] it was 78.3 µM; in [11], > 100 µM.
For the molecule `COc1cc(-c2nc3ccccn3c2/N=C/c2cc(Br)cc(Br)c2O)ccc1O`, the TGI in experiment [1] was 74.3 µM; in experiment [2], 66.6 µM; in experiment [3], > 100 µM; in experiment [4], 75.2 µM; in experiment [5], 57.8 µM; in experiment [6] it was 61.8 µM. Moreover, the TGI in experiment [7] is 35.5 µM; in [8], 42.2 µM; in experiment [9], 64.5 µM; in experiment [10], > 100 µM; in [11], 90.2 µM.
Take `N#Cc1[nH]c(=O)n(-c2ccccc2)c1N`: the TGI in [1], in [2], in experiment [3], in [4], in experiment [5] and in experiment [6] was > 10 µM in each case. The TGI in [7], in experiment [8], in experiment [9], in experiment [10] and in [11] was > 10 µM throughout.
In the case of `COC(=O)c1cc2c(cc1CC(Cc1ccc3c(c1)CCCC3)C(=O)OC)CCCC2` (stereo unspecified), the TGI in [1] is > 100 µM; in experiment [2] it was > 100 µM; in [3], 93.8 µM; in experiment [4] it was > 100 µM; in [5] it was > 100 µM; in experiment [6] it was > 100 µM. Also, the TGI in experiment [7] is > 100 µM; in experiment [8] it was > 100 µM; in experiment [9], > 100 µM; in experiment [10], 72.9 µM; in experiment [11] it was > 100 µM.
Consider `CCN1CCN(c2nc3ccccc3c3c2CCOc2ccccc2-3)CC1`, for which the TGI is 37.2 µM in [1]; > 62.6 µM in [2]; 37.3 µM in [3]; 34.8 µM in experiment [4]; 35.3 µM in experiment [5]; > 75.5 µM in experiment [6]. Also, the TGI in [7] is > 55.1 µM; in [8], > 67.4 µM; in experiment [9], > 78.1 µM; in [10] it was > 65.1 µM; in experiment [11], > 65.2 µM.
